Laboratory results as given in patent publication US10624342B2, “Synergistic weed control from applications of haloxyfop and ALS inhibitor herbicides” (priority 2014, dated 2020).
Several values for one entry are separate records, joined by “and”; a condition that tells them apart may be missing. Identical values can stand only once.

Key:
Format in all cases: in vivo
[1] = system: barnyardgrass, Echinochloa crus-galli; test: Field trial in rice, foliar post-emergence visual weed control: barnyardgrass; settings: ECHCG
Method: (§1) Field trials were conducted in Taiwan, China and Colombia with applications made in the area of naturally occurring weed populations. All treatments were applied using a randomized complete block trial design, with 3 to 4 replications per treatment. Plot size varied and was 1-6 meters×2-12 meters (width×length). Rice was seeded into the plots, and the rice crop was maintained as a normal commercial crop with appropriate fertilizer and maintenance treatments as needed. Rice size at application varied from the 2 to 4 leaf stage, and weeds were at the 2 to 5 leaf stage. All treatments were foliar applied as post-emergence treatments using backpack sprayers with compressed air or carbon dioxide (CO2) propellant. Spray pressure varied from 25 to 35 pounds per square inch (psi). Spray nozzles used were flat fan, with 1 to 4 nozzle booms used to apply from 200 to 450 L/ha of water as spray diluent. All treatments were mixed in water at appropriately formulated product rates to achieve the desired rates as shown based on a unit area of application (hectare). Commercially available products were used to make all applications, consisting of FENCER® 250D and BENGALA® 250D (25 grams active ingredient per liter (g ai/L) penoxsulam in an oil dispersion formulation); GALLANT™ SUPER and VERDICT™ SUPER EC (108 g ai/L haloxyfop-R-methyl in an emulsifiable concentrate formulation); GULLIVER® (500 grams active ingredient per kilograms (g ai/kg) WP (wettable powder)) and NOMINEE® SL (100 g ai/L bispyribac-sodium wettable powder).
(§2) Treatments consisted of haloxyfop-R-methyl and an ALS mode of action herbicide (penoxsulam, bispyribac-sodium, bensulfuron-methyl, or azimsulfuron), applied alone or in combination.
(§3) The treated plots and control plots were rated blind at various intervals after application. Ratings were based on a scale of 0-100%, as discussed above, wherein 0% indicates complete growth of the undesired vegetation and 100% indicates complete prevention of the undesired vegetation.
(§4) Colby's equation was used to determine the herbicidal effects expected from the mixtures, as described above. The results were measured at the evaluation intervals provided in Tables 1-5 after the first application of the compositions. […] The combinations tested, application rates and ratios employed, plant species tested, and results are included in Tables 1-5 below.
(§5) Colby's equation was used to determine the herbicidal effects expected from the mixtures (S. R. Colby, Calculating Synergistic and Antagonistic Responses of Herbicide Combinations, WEEDS 15, p. 22 (1967)). A t-test (alpha=0.05) between Colby predictions and observed combinations was used to test for significant differences indicating synergy or antagonism using replicate data. The results presented in Tables 1-5 were significant according to the described criteria.

[2] = system: Chinese sprangletop, Leptochloa chinensis; test: Field trial in rice, foliar post-emergence visual weed control: Chinese sprangletop; settings: LEFCH
Method: as §1, §2, §3, §4, §5

[3] = system: small flower flatsedge, Cyperus difformis; test: Field trial in rice, foliar post-emergence visual weed control: small flower flatsedge; settings: CYPDI; for % Visual Weed Control: 7DAA; for Mean % weed control: 14DAA
Method: as §1, §2, §3, §4, §5

[4] = system: itch grass, Rottboellia exaltata; test: Field trial in rice, foliar post-emergence visual weed control: itch grass; settings: ROOEX
Method: as §1, §2, §3, §4, §5

[5] = system: monochoria, Monochoria vaginalis; test: Field trial in rice, foliar post-emergence visual weed control: monochoria; settings: MOOVA, 7DAA
Method: as §1, with “Commercially available products were used to make all applications, consisting of FENCER® 250D and BENGALA® 250D (25 grams active ingredient per liter (g ai/L) penoxsulam in an oil dispersion formulation); GALLANT™ SUPER and VERDICT™ SUPER EC (108 g ai/L haloxyfop-R-methyl in an emulsifiable concentrate formulation); GULLIVER® (500 grams active ingredient per kilograms (g ai/kg) WP (wettable powder)) and NOMINEE® SL (100 g ai/L bispyribac-sodium wettable powder).” left out
Colby's equation was used to determine the herbicidal effects expected from the mixtures, as described above. The results were measured at the evaluation intervals provided in Tables 1-5 after the first application of the compositions. […]

[6] = system: bullgrass, Eleusine indica; test: Field trial in rice, foliar post-emergence visual weed control: bullgrass; settings: ELEIN, 7DAA
Method: as §1, §2, §3, §4
Colby's equation was used to determine the herbicidal effects expected from the mixtures (S. R. Colby, Calculating Synergistic and Antagonistic Responses of Herbicide Combinations, WEEDS 15, p. 22 (1967)). A t-test (alpha=0.05) between Colby predictions and observed combinations was used to test for significant differences indicating synergy or antagonism using replicate data. […]

[7] = system: crabgrass, Digitaria horizontalis; test: Field trial in rice, foliar post-emergence visual weed control: crabgrass; settings: DIGHO
Method: as §1, §2, §3, §4, §5

[8] = system: rice flatsedge, Cyperus iria; test: Field trial in rice, foliar post-emergence visual weed control: rice flatsedge; settings: CYPIR
Method: as §1, §2, §3, §4, §5

COc1cc(OC)nc(NC(=O)NS(=O)(=O)c2c(-c3nnn(C)n3)cnn2C)n1 [Azimsulfuron, 1-(4,6-dimethoxypyrimidin-2-yl)-3-[1-methyl-4-(2-methyl-2H-tetrazol-5-yl)pyrazol-5-ylsulfonyl]urea]
Mean % weed control ([1]; 7DAA, 40 g ai/ha alone): 89.0% | Mean % weed control ([2]; 14DAA, 10 g ai/ha alone): 0.0% | Mean % weed control ([2]; 14DAA, 20 g ai/ha alone): 0.0%

COC(=O)c1ccccc1CS(=O)(=O)NC(=O)Nc1nc(OC)cc(OC)n1 [Bensulfuron-Methyl, bensulfuron-methyl]
% Visual Weed Control ([1]; 28DAA, 20 g ai/ha alone (Table 4)): 0% | % Visual Weed Control ([1]; 28DAA, 40 g ai/ha alone (Table 4)): 23% | % Visual Weed Control ([3]; 10 g ai/ha alone): 90% | % Visual Weed Control ([3]; 20 g ai/ha alone): 92%

COc1cc(OC)nc(Oc2cccc(Oc3nc(OC)cc(OC)n3)c2C(=O)O)n1 [Bispyribac-Sodium, bispyribac-sodium]
Mean % weed control ([1]; 7DAA, 20 g ai/ha alone): 53.3% | Mean % weed control ([1]; 7DAA, 40 g ai/ha alone): 76.7% | Mean % weed control ([1]; 14DAA, 20 g ai/ha alone): 35.0% | Mean % weed control ([1]; 28DAA, 20 g ai/ha alone): 20.0% | Mean % weed control ([1]; 28DAA, 40 g ai/ha alone): 88.3%

COC(=O)C(C)Oc1ccc(Oc2ncc(C(F)(F)F)cc2Cl)cc1 [Haloxyfop-methyl (R), haloxyfop-R-methyl]
Mean % weed control ([4]; 7DAA, 8 g ai/ha alone): 11.7% | Mean % weed control ([4]; 15DAA, 4 g ai/ha alone): 0.0% | Mean % weed control ([4]; 15DAA, 16 g ai/ha alone): 77.5% | Mean % weed control ([4]; 28DAA, 4 g ai/ha alone): 0.0% | Mean % weed control ([5]; 16 g ai/ha alone): 0.0% | Mean % weed control ([1]; 7DAA, 4 g ai/ha alone): 0.0% | Mean % weed control ([1]; 7DAA, 8 g ai/ha alone): 0.0% | Mean % weed control ([1]; 7DAA, 27 g ai/ha alone): 0.0% | Mean % weed control ([1]; 14DAA, 8 g ai/ha alone): 0.0% | Mean % weed control ([1]; 21DAA, 27 g ai/ha alone): 0.0% | Mean % weed control ([1]; 28DAA, 4 g ai/ha alone): 0.0% | % Visual Weed Control ([1]; 28DAA, 4 g ai/ha alone (Table 4)): 0% | Mean % weed control ([1]; 28DAA, 8 g ai/ha alone): 0.0% and 6.7% | % Visual Weed Control ([1]; 28DAA, 8 g ai/ha alone (Table 4)): 0% | Mean % weed control ([1]; 28DAA, 13.5 g ai/ha alone): 0.0% | Mean % weed control ([1]; 28DAA, 27 g ai/ha alone): 0.0% | Mean % weed control ([2]; 7DAA, 8 g ai/ha alone): 0.0% | Mean % weed control ([2]; 14DAA, 2 g ai/ha alone): 0.0% | Mean % weed control ([2]; 14DAA, 4 g ai/ha alone): 0.0% | Mean % weed control ([2]; 28DAA, 8 g ai/ha alone): 0.0% | Mean % weed control ([6]; 4 g ai/ha alone): 21.7% | Mean % weed control ([7]; 7DAA, 8 g ai/ha alone): 71.7% | Mean % weed control ([7]; 15DAA, 4 g ai/ha alone): 35.0% | Mean % weed control ([8]; 7DAA, 8 g ai/ha alone): 0.0% | Mean % weed control ([8]; 7DAA, 16 g ai/ha alone): 0.0% | Mean % weed control ([8]; 15DAA, 8 g ai/ha alone): 0.0% | Mean % weed control ([8]; 15DAA, 16 g ai/ha alone): 11.3% | % Visual Weed Control ([3]; 2 g ai/ha alone): 0% | % Visual Weed Control ([3]; 8 g ai/ha alone): 0% | Mean % weed control ([3]; 16 g ai/ha alone): 0.0% | Mean % weed control ([3]; 32 g ai/ha alone): 0.0%

COc1cnc(OC)n2nc(NS(=O)(=O)c3c(OCC(F)F)cccc3C(F)(F)F)nc12 [Penoxsulam]
Mean % weed control ([4]; 7DAA, 32 g ai/ha alone): 3.3% | Mean % weed control ([4]; 15DAA, 8 g ai/ha alone): 0.0% | Mean % weed control ([4]; 28DAA, 8 g ai/ha alone): 0.0% | Mean % weed control ([4]; 28DAA, 16 g ai/ha alone): 12.5% | Mean % weed control ([5]; 5 g ai/ha alone): 90.0% | Mean % weed control ([1]; 7DAA, 10 g ai/ha alone): 63.3% | Mean % weed control ([1]; 7DAA, 15 g ai/ha alone): 95.7% | Mean % weed control ([1]; 21DAA, 15 g ai/ha alone): 93.3% | Mean % weed control ([1]; 28DAA, 7.5 g ai/ha alone): 53.3% | Mean % weed control ([1]; 28DAA, 10 g ai/ha alone): 56.7% | Mean % weed control ([1]; 28DAA, 15 g ai/ha alone): 91.7% | Mean % weed control ([1]; 28DAA, 30 g ai/ha alone): 98.3% | Mean % weed control ([2]; 7DAA, 10 g ai/ha alone): 0.0% | Mean % weed control ([2]; 7DAA, 20 g ai/ha alone): 0.0% | Mean % weed control ([2]; 7DAA, 30 g ai/ha alone): 0.0% | Mean % weed control ([2]; 14DAA, 10 g ai/ha alone): 0.0% | Mean % weed control ([2]; 14DAA, 20 g ai/ha alone): 0.0% | Mean % weed control ([2]; 14DAA, 30 g ai/ha alone): 0.0% | Mean % weed control ([2]; 28DAA, 30 g ai/ha alone): 0.0% | Mean % weed control ([6]; 8 g ai/ha alone): 0.0% | Mean % weed control ([6]; 16 g ai/ha alone): 0.0% | Mean % weed control ([6]; 32 g ai/ha alone): 0.0% | Mean % weed control ([7]; 7DAA, 8 g ai/ha alone): 0.0% | Mean % weed control ([7]; 7DAA, 16 g ai/ha alone): 0.0% | Mean % weed control ([7]; 15DAA, 8 g ai/ha alone): 0.0% | Mean % weed control ([7]; 15DAA, 16 g ai/ha alone): 0.0% | Mean % weed control ([7]; 15DAA, 32 g ai/ha alone): 0.0% | Mean % weed control ([8]; 7DAA, 8 g ai/ha alone): 62.0% | Mean % weed control ([8]; 7DAA, 32 g ai/ha alone): 87.0% | Mean % weed control ([8]; 15DAA, 8 g ai/ha alone): 85.0% | Mean % weed control ([3]; 10 g ai/ha alone): 93.3%
